Laboratory results as given in article PMC9166630, “SAR Probing of KX2-391 Provided Analogues With Juxtaposed Activity Profile Against Major Oncogenic Kinases” (Frontiers in Oncology, 2022).
Values joined by “and” are separate entries in the source; they are usually repeats but may differ in a detail not shown here. Equal entries are not always repeated.

Key:
EphA5 = target: T1, EphA5 (Homo sapiens, UniProt P54756); experiment: PamChip tyrosine kinase microarray, EphA5; assay type: biochemical; conditions: 4e 0.1 µM, HL60 lysate
T1 construct: endogenous in cells; host or cells: HL60 lysate
T1 sequence (P54756 25-1037): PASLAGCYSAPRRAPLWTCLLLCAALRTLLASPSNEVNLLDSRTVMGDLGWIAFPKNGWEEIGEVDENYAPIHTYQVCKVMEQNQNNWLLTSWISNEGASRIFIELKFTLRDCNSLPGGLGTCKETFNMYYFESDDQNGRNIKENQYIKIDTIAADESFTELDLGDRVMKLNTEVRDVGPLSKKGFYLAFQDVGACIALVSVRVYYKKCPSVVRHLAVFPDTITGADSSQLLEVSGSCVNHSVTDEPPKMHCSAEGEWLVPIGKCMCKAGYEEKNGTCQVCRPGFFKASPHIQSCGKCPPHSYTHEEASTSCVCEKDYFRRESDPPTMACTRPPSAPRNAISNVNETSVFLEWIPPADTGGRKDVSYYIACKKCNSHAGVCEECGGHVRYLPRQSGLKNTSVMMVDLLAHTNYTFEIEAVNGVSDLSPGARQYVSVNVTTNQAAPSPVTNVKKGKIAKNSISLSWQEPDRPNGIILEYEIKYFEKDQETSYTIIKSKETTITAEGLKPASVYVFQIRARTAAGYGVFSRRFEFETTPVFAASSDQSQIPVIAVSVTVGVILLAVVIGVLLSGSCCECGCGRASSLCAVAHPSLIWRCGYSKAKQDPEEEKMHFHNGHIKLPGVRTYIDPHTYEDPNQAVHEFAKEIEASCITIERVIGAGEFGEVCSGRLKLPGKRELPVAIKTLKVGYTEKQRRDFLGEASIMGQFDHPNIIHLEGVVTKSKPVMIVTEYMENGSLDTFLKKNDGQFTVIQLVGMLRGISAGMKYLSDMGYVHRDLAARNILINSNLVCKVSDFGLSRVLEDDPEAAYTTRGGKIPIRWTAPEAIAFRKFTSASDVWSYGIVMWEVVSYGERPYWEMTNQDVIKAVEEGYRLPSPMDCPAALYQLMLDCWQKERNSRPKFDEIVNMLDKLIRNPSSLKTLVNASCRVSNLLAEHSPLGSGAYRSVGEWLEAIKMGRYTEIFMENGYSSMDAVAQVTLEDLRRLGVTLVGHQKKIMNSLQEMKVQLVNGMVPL
Protocol: (§1) The changes in kinase activities induced by treatment with 4e were monitored within the HL60 cell lines using PamGene’s (Hertogenbosch, Netherlands) PamChip® peptide microarray profiler, which quantifies the activities of 144 tyrosine kinases (YK) ([29], [30]) (Figure 7). Results are provided as a log fold change (LFC) heatmap and Mean Kinase Statistic. From the LFC it is apparent that compound 4e, at a concentration of 0.1 µM, induced sizable changes to the activity of several kinases within the cell signaling YK profile (Figure 7A).
(§2) An Upstream Kinase tool was used to generate a putative list of kinases responsible for phosphorylating the phospho-sites on the PamChip (Figure 7B) ([31]). It is an interpretation and is highly dependent on the contents of the underlying phosphorylation databases. A Kinase Score was used for ranking kinases based on their significance and specificity in terms of the set of peptides used for the corresponding kinase. Kinase Statistics indicates the overall change of the peptide set that represents the kinase. Kinase statistics value <0 indicates lower kinase activity in the compound spiked lysate and vice versa ([32], [33]). Table 5 lists the 20 most changed kinases within treated HL60 cell lysates by 0.1 μM 4e, ranked according to their Kinase Score.
(§3) The compound 4e was spiked into HL60 cell lysate at different concentrations (0.001, 0.01, 0.1, 1, 10 and 50 μM). In addition, DMSO was also spiked in HL60 lysate at low concentration (2% v/v) as control. Samples were profiled on PamGene’s Tyrosine Kinase (PTK) arrays in technical replicates, covering a total of 196 phosphorylation sites. Frozen HL60 cultured cell pellet was sent to PamGene. At PamGene, cells were lysed using a lysis buffer and proteases inhibitors cocktail. Protein concentration was measured using standard Bradford assay as per PamGene SOPs. These lysates were further used for generating the PTK activity profiles. For spiking, 4e was received as powder form and dissolved in DMSO at PamGene facility followed by storing at -20°C in small aliquots. PamGene used its in-house bioinformatics toolbox in combination with other methods to generate hypotheses of signaling pathways.

CTK = experiment: PamChip tyrosine kinase microarray, CTK; assay type: biochemical, human; conditions: 4e 0.1 µM, HL60 lysate
Protocol: as §1, §2, §3

Srm = target: T2, Srm (Homo sapiens, UniProt Q9H3Y6); experiment: PamChip tyrosine kinase microarray, Srm; assay type: biochemical; conditions: 4e 0.1 µM, HL60 lysate
T2 construct: endogenous in cells; host or cells: HL60 lysate
T2 sequence (Q9H3Y6 whole entry): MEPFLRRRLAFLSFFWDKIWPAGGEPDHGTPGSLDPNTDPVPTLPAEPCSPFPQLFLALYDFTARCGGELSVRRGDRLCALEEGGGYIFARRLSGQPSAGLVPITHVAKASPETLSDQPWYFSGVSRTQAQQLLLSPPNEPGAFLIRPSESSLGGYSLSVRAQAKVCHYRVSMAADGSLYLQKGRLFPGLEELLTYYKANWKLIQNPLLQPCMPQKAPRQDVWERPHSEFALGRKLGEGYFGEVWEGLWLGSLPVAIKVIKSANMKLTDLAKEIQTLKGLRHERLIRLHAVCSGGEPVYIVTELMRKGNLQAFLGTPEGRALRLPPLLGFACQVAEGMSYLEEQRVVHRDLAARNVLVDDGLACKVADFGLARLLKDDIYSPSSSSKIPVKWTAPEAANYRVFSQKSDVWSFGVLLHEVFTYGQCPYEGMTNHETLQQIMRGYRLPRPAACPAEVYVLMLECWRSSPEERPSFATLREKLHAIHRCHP
Protocol: as §1, §2, §3

Tyk2 = experiment: PamChip tyrosine kinase microarray, Tyk2; assay type: biochemical, human; conditions: 4e 0.1 µM, HL60 lysate
Protocol: as §1, §2, §3

GSK-3α/β = experiment: Human phosphokinase array, GSK-3α/β; assay type: cell-based
Excerpt: (§4) The kinome tree representation (Figure 7C), which was generated by raising the Kinase Score cut-off to >1.2, confirmed that, unlike tirbanibulin and our prototype molecule KX1-136, 4e’s effects were more observable on kinases other than the Src family such as the Eph and TEC families. […] Therefore, we screened compound 4e using the Human Phospho-Kinase Array® kit from R&D systems (Minneapolis, MN, USA). In this system, 35 phosphorylated YK and serine-threonine kinase (STK) enzymes in the untreated (control) and treated (test) HL60 cell lysates were captured on nitrocellulose membrane, pre-spotted with phosphokinase-specific capture antibodies, and then visualized by detection antibody cocktails (Figure 8). The difference in the spot intensity between untreated (control) and treated cells is proportional to change in the amount of the phosphorylated protein induced by 4e.
(§5) The phosphorylation profile of 48 kinases was performed using the Proteome Profiler Human Phospho-Kinase Antibody Array Kit by R&D Systems (Minneapolis, MN, USA) according to the protocol. Briefly, the total cellular protein was extracted using the Lysis buffer and was quantified using Bio-Rad DC Protein Assay kit (Hercules, CA, USA). Nitrocellulose membrane set (A&B), pre-spotted with kinase-specific capture antibodies, were first blocked with Array Buffer-1 at RT for 30 min on a rocking platform shaker. Approximately 600 µg of protein concentrate was diluted in the buffer provided and was added onto the membrane set, and the membranes were incubated overnight at 4°C in an 8-well plate. Subsequently, membranes were washed with Wash Buffer and incubated with appropriate Detection Antibody cocktails for 2 h at RT. Streptavadin-HRP (1:2000) was added onto membranes and incubated for 30 min at RT. Membranes were washed, and Chemiluminescent Detection Reagents 1&2 were applied in equal volumes for detection. The signals were detected on C-DiGit®Blot Scanner (LI-COR, Odyssey Imaging Systems, Lincoln, Nebraska, USA) using Image Studio 5.0 software.

C-Jun = experiment: Human phosphokinase array, c-Jun; assay type: cell-based
Excerpt: as §4, §5

Ret = target: T3, Ret (Homo sapiens, UniProt P07949); experiment: PamChip tyrosine kinase microarray, Ret; assay type: biochemical; conditions: 4e 0.1 µM, HL60 lysate
T3 construct: endogenous in cells; host or cells: HL60 lysate
T3 sequence (P07949 29-1114): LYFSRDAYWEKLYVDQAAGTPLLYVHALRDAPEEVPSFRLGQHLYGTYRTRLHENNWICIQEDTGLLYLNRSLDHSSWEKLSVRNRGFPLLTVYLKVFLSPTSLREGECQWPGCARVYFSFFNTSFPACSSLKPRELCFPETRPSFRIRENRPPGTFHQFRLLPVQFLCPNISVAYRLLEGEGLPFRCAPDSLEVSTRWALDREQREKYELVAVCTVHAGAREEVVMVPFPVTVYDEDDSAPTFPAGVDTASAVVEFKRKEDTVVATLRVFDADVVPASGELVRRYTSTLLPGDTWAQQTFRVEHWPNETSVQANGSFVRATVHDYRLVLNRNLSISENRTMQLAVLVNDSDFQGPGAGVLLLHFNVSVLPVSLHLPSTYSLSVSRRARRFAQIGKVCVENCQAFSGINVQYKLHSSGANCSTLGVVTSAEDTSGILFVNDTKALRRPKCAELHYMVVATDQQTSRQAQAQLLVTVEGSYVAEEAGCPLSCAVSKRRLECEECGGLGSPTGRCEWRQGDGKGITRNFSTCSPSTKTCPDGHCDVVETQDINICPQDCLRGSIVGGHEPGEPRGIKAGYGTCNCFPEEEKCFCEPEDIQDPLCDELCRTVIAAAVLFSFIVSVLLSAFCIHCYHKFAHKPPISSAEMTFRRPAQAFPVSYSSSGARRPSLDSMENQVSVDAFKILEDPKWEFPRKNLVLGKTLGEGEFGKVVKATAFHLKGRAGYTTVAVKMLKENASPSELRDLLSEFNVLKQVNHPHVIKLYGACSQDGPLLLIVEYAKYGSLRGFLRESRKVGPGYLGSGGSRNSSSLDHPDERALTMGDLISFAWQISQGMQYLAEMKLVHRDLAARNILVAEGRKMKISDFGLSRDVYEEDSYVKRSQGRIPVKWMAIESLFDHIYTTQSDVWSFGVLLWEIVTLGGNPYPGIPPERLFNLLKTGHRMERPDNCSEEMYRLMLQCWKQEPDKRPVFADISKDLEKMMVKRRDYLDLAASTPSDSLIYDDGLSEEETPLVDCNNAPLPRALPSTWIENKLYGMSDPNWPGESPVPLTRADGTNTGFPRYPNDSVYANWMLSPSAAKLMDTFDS
Protocol: as §1, §2, §3

JAK1~b = target: T4, JAK1~b (Homo sapiens, UniProt P23458); experiment: PamChip tyrosine kinase microarray, JAK1~b; assay type: biochemical; conditions: 4e 0.1 µM, HL60 lysate
T4 construct: The compound 4e was spiked into HL60 cell lysate at different concentrations; endogenous in cells; host or cells: HL60 cell lysate
T4 sequence (P23458 whole entry): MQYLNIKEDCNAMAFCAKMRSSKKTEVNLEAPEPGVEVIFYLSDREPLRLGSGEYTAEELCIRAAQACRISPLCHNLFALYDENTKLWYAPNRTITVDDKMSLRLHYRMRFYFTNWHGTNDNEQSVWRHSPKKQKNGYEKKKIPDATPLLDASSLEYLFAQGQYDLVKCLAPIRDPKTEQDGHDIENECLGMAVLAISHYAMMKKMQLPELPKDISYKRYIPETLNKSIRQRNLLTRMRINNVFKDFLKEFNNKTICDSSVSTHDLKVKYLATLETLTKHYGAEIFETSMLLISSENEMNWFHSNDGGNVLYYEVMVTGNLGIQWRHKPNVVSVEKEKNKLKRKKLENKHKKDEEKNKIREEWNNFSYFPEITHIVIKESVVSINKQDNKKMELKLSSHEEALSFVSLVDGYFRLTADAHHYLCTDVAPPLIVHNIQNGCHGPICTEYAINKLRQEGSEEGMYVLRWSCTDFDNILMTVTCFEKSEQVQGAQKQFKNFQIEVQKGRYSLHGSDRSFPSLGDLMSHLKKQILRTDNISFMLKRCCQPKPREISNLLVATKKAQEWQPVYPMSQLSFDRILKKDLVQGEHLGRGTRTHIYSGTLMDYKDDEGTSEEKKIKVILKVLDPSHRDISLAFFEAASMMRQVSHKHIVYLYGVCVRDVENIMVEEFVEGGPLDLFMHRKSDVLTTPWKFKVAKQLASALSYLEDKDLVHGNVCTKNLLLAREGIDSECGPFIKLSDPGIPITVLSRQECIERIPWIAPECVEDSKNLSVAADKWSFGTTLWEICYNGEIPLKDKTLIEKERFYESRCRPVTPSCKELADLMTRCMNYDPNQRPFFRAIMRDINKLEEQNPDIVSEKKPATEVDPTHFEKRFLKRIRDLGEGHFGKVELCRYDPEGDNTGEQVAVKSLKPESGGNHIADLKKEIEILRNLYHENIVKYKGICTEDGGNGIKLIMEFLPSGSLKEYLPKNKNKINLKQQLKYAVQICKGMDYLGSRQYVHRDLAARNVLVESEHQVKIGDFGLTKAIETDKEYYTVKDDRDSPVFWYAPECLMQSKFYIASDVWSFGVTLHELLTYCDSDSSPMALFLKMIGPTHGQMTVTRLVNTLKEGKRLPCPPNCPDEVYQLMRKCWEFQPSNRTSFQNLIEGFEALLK
Protocol: as §1, §2, §3

CREB = experiment: Human phosphokinase array, CREB; assay type: cell-based
Excerpt: as §4, §5

O=C(Cc1ccc(NC(=O)c2cccc(Cl)c2)cc1)NCc1ccccc1 [Compound 4e, N-(4-(2-(benzylamino)-2-oxoethyl)phenyl)-3-chlorobenzamide]
Mean Final Score (EphA5): 2.9453 | Mean Kinase Statistic (EphA5): -0.8931 | Mean Significance Score (EphA5): 1.7474 | Mean Specificity Score (EphA5): 1.1979 | Mean Final Score (CTK): 1.5802 | Mean Kinase Statistic (CTK): -0.4874 | Mean Significance Score (CTK): 1.1881 | Mean Specificity Score (CTK): 0.3920 | Mean Final Score (Srm): 2.2692 | Mean Kinase Statistic (Srm): -0.5863 | Mean Significance Score (Srm): 1.1518 | Mean Specificity Score (Srm): 1.1174 | Mean Final Score (Tyk2): 1.7035 | Mean Kinase Statistic (Tyk2): -0.6710 | Mean Significance Score (Tyk2): 1.1411 | Mean Specificity Score (Tyk2): 0.5624 | phosphokinase signal after 4e exposure, GSK-3α/β (GSK-3α/β; HL60 cell lysate, treated): 102.64 | Change in Signal, GSK-3α/β (GSK-3α/β; treated vs untreated HL60): 22.94 | % Change, GSK-3α/β (GSK-3α/β; treated vs untreated HL60, Ser9 phosphorylation): 28.78% and 28% | phosphokinase signal after 4e exposure, C-Jun (C-Jun; HL60 cell lysate, treated): 1811.31 | Change in Signal, C-Jun (C-Jun; treated vs untreated HL60): 829.81 | % Change, C-Jun (C-Jun; treated vs untreated HL60, Ser63 phosphorylation increase): 84% and 84.55% | Mean Final Score (Ret): 2.3893 | Mean Kinase Statistic (Ret): -0.7112 | Mean Significance Score (Ret): 1.0953 | Mean Specificity Score (Ret): 1.2940 | Mean Final Score (JAK1~b): 1.3907 | Mean Kinase Statistic (JAK1~b): -0.5828 | Mean Significance Score (JAK1~b): 0.8736 | Mean Specificity Score (JAK1~b): 0.5171 | phosphokinase signal after 4e exposure, CREB (CREB; HL60 cell lysate, treated): 682.43 | Change in Signal, CREB (CREB; treated vs untreated HL60): 42.08 | % Change, CREB (CREB; treated vs untreated HL60, Ser133): 6.57% and ~ 6%
